One data set has as its system HBV. Kind of data set: Anti-viral assay in HepG2.2.15 cells: anti-HBV activity, HBV DNA in culture medium by qPCR. The class given is cell-based. As for the experimental part: (§1) HepG2.2.15 (the HepG2.2.15 cell line can be produced by transfection of the HepG2 cell line as described in Sells, Chen, and Acs 1987 (Proc. Natl. Acad. Sci. USA 84: 1005-1009), and the HepG2 cell line is available from ATCC® under number HB-8065™)
(§2) HepG2.2.15 cells were plated into 96-well plate in 2% FBS culture medium at the density of 40,000 cells/well and 5,000cells/well for HBV inhibitory activity and cytotoxicity determination, respectively. After incubation at 37° C., 5% CO2 overnight, cells were treated with medium containing compounds for 6 days with medium and compounds refreshed after 3 days of treatment. Each compound was tested in a 1:3 serial dilutions at 8 different concentrations in triplicate. The highest concentration of the compounds was 10 uM or 1 uM for anti-HBV activity assay and 100 uM for cytotoxicity determination.
The change of HBV DNA level induced by the compounds was assessed by quantitative real-time polymerase chain reaction (qPCR). Briefly, the HBV DNA in the culture medium was extracted using QIAamp 96 DNA Blood Kit according to the manual and then quantified by real-time PCR assay using the primers and probe in the table 1 below.
(§3) EC50 and CC50 values are calculated by the […] PRISM software.

Data set [1] is described as follows: Cytotoxicity determination in HepG2.2.15 cells (CCK-8 assay). It is filed as cell-based. The conditions noted are these: human, 6 days treatment, CCK-8, highest concentration 100 uM. As for the experimental part: as §1, §2
Cell viability was determined by CCK-8 assay. After 6 days of compounds treatment, 20 μl CCK-8 reagents were added to each well of cytotoxicity assay plates. Cell plates were incubated at 37° C., 5% CO2 for 2.5 h. The absorbance at 450 nm wavelength and the absorbance at 630 nm wavelength as reference was measured.
as §3

Setting [2] is: Hepatitis B virus, HepG2.2.15, 144 h, HepG2.2.15 cells, 6 days treatment, HBV DNA by qPCR, read-out: EC50.
Where [3] appears, read: HepG2.2.15 cells, 6 days treatment, HBV DNA by qPCR, read-out: EC50.

Like-named read-outs stand apart in the source and are kept apart here.

Regarding `CCOC(=O)C1=C(CN2CCN3C(=S)N(C(C)(C)CC(=O)O)CC3C2)NC(c2nccs2)=N[C@H]1c1cccc(F)c1C` (single isomer, unassigned) [Compound 30A], in the data set with HBV (setting [2]), the EC50 amounted to 5 nM. The same molecule had a CC50 at 6 days in data set [1] of 8600 nM.

Turning to `CCOC(=O)C1=C(CN2CCN3C(=S)N(CC(C)(C)C(=O)O)C[C@@H]3C2)NC(c2ncc(F)cc2F)=N[C@H]1c1cccc(F)c1C` (single isomer, unassigned) [Compound 22A, 3-(7-((2-(3,5-difluoropyridin-2-yl)-5-(ethoxycarbonyl)-6-(3-fluoro-2-methylphenyl)-3,6-dihydropyrimidin-4-yl)methyl)-3-thioxohexahydroimidazo-[1,5-a]pyrazin-2(3H)-yl)-2,2-dimethylpropanoic acid], in the data set on HBV (setting [2]), the EC50 was 8.9 nM. The same molecule returned a CC50 at 6 days in data set [1] of 12800 nM.

As for `CCOC(=O)C1=C(CN2CCN3C(=S)N(CC(C)(C)C(=O)O)CC3C2)NC(c2nccs2)=NC1c1cccc(F)c1Cl` (single isomer, unassigned) [Compound 3A, 3-(7-((6-(2-chloro-3-fluorophenyl)-5-(ethoxycarbonyl)-2-(thiazol-2-yl)-3,6-dihydropyrimidin-4-yl)methyl)-3-thioxohexahydroimidazo[1,5-a]pyrazin-2(3H)-yl)-2,2-dimethylpropanoic acid], the EC50 in the data set on HBV (setting [3]) stood at 19 nM. In data set [1], this molecule displayed a CC50 at 6 days of 25200 nM.

Turning to `COC(=O)C1=C(CN2CCN3C(=S)N(CC(C)(C)C(=O)O)CC3C2)NC(c2ncoc2C)=NC1c1cccc(F)c1C` (single isomer, unassigned) [Compound 31A, 3-(7-((6-(3-Fluoro-2-methylphenyl)-5-(methoxycarbonyl)-2-(5-methyloxazol-4-yl)-3,6-dihydropyrimidin-4-yl)methyl)-3-thioxohexahydroimidazo[1,5-a]pyrazin-2(3H)-yl)-2,2-dimethylpropanoic acid], in the data set on HBV (setting [2]), the EC50 came out at 15 nM. For the same molecule, it took 43700 nM to reach half-maximal cytotoxicity in data set [1] (CC50 at 6 days).

On to `CCOC(=O)C1=C(CN2CCN3C(=S)N([C@@H]4CC[C@H](C(=O)O)C4)CC3C2)NC(c2nccs2)=N[C@H]1c1cccc(F)c1C` (single isomer, unassigned) [Compound 24A], for which the EC50 with HBV (setting [3]) came to 39.1 nM. In data set [1], the CC50 at 6 days is 15500 nM.

In the case of `CCOC(=O)C1=C(CN2CCN3C(=S)N([C@H]4CC[C@@H](C(=O)O)C4)CC3C2)NC(c2nccs2)=N[C@H]1c1cccc(F)c1C` (single isomer, unassigned) [Compound 24C], the EC50 with HBV (setting [3]) was 1.4 nM. The same molecule registered a half-maximal cytotoxic concentration (CC50) at 6 days in data set [1] of 11600 nM.

In the case of `CCOC(=O)C1=C(CN2CCN3C(=S)N(CC(C)(C)C(=O)O)C[C@@H]3C2)NC(c2nccs2)=N[C@H]1c1ccc(F)c(F)c1C` (single isomer, unassigned) [Compound 15B, 3-(7-((6-(3,4-Difluoro-2-methylphenyl)-5-(ethoxycarbonyl)-2-(thiazol-2-yl)-3,6-dihydropyrimidin-4-yl)methyl)-3-thioxohexahydroimidazo[1,5-a]pyrazin-2(3H)-yl)-2,2-dimethylpropanoic acid], the EC50 in the data set with HBV (setting [2]) is 300 nM. For the same molecule, in data set [1], the CC50 at 6 days is 45000 nM.

As to `CCOC(=O)C1=C(CN2CCN3C(=NC#N)N(CC(C)(C)C(=O)O)CC3C2)NC(c2nccs2)=N[C@H]1c1cccc(F)c1C` (stereo partly drawn) [Compound 2, 3-(3-(cyanoimino)-7-(((S)-5-(ethoxycarbonyl)-6-(3-fluoro-2-methylphenyl)-2-(thiazol-2-yl)-3,6-dihydropyrimidin-4-yl)methyl)hexahydroimidazo[1,5-a]pyrazin-2(3H)-yl)-2,2-dimethylpropanoic acid], in the data set on HBV (setting [2]), the EC50 was determined as 49 nM. The CC50 at 6 days in data set [1] stood at 55400 nM.

As for `COC(=O)C1=C(CN2CCN3C(=S)N(CC(C)(C)C(=O)O)C[C@@H]3C2)NC(c2nccs2)=N[C@@H]1c1ccc(F)cc1Br` (single isomer, unassigned) [Compound 16A, 3-(7-((6-(2-Bromo-4-fluorophenyl)-5-(methoxycarbonyl)-2-(thiazol-2-yl)-3,6-dihydropyrimidin-4-yl)methyl)-3-thioxohexahydroimidazo[1,5-a]pyrazin-2(3H)-yl)-2,2-dimethylpropanoic acid], the concentration for a half-maximal effect (EC50) in the data set on HBV (setting [2]) was determined as 4.5 nM. Moreover, half-maximal cytotoxicity in data set [1] (CC50 at 6 days) was put at 15300 nM.

Turning to `COC(=O)C1=C(CN2CCN3C(=S)N(CC(C)(C)C(=O)O)CC3C2)NC(c2nccs2)=NC1c1ccc(F)c(F)c1Cl` (single isomer, unassigned) [Compound 11A, 3-(7-((6-(2-Chloro-3,4-difluorophenyl)-5-(methoxycarbonyl)-2-(thiazol-2-yl)-3,6-dihydropyrimidin-4-yl)methyl)-3-thioxohexahydroimidazo[1,5-a]pyrazin-2(3H)-yl)-2,2-dimethylpropanoic acid], the EC50 in the data set on HBV (setting [2]) worked out at 1.9 nM. In data set [1], this molecule yielded a CC50 at 6 days of 16200 nM.

Regarding `CCOC(=O)C1=C(CN2CCN3C(=S)N(C[C@@H](C)C(=O)O)C[C@@H]3C2)NC(c2ncoc2C)=NC1c1cccc(F)c1C` (single isomer, unassigned) [Compound 32A, 3-(7-((5-(Ethoxycarbonyl)-6-(3-fluoro-2-methylphenyl)-2-(5-methyloxazol-4-yl)-3,6-dihydropyrimidin-4-yl)methyl)-3-thioxohexahydroimidazo[1,5-a]pyrazin-2(3H)-yl)-2-methylpropanoic acid], the EC50 in the data set on HBV (setting [2]) was determined as 24.9 nM. The same molecule registered a CC50 at 6 days in data set [1] of 41000 nM.

Consider `COC(=O)C1=C(CN2CCN3C(=S)N(CC(C)(C)C(=O)O)CC3C2)NC(c2nccs2)=NC1c1cccc(F)c1C` (single isomer, unassigned) [Compound 10B, 3-(-7-((6-(3-Fluoro-2-methylphenyl)-5-(methoxycarbonyl)-2-(thiazol-2-yl)-3,6-dihydropyrimidin-4-yl)methyl)-3-thioxohexahydroimidazo[1,5-a]pyrazin-2(3H)-yl)-2,2-dimethylpropanoic acid], for which, in the data set with HBV (setting [2]), the EC50 is 2.9 nM. For the same molecule, in data set [1], the CC50 at 6 days turned out to be 23200 nM.

Consider `COC(=O)C1=C(CN2CCN3C(=S)N(CC(C)(C)C(=O)O)C[C@@H]3C2)NC(c2ncoc2C)=N[C@H]1c1ccc(F)cc1Cl` (single isomer, unassigned) [Compound 34A, 3-(7-((6-(2-Chloro-4-fluorophenyl)-5-(methoxycarbonyl)-2-(5-methyloxazol-4-yl)-3,6-dihydropyrimidin-4-yl)methyl)-3-thioxohexahydroimidazo[1,5-a]pyrazin-2(3H)-yl)-2,2-dimethylpropanoic acid], for which, in the data set with HBV (setting [2]), the EC50 stood at 7.9 nM. The molecule also returned a CC50 at 6 days in data set [1] of 47400 nM.

As for `CCOC(=O)C1=C(CN2CCN3C(=S)N(CC(C)(C)C(=O)O)CC[C@@H]3C2)NC(c2nccs2)=N[C@H]1c1cccc(F)c1C` [Compound 6A, 3-((R)-2-(((S)-5-(ethoxycarbonyl)-6-(3-fluoro-2-methylphenyl)-2-(thiazol-2-yl)-3,6-dihydropyrimidin-4-yl)methyl)-6-thioxohexahydro-2H-pyrazino[1,2-c]pyrimidin-7(6H)-yl)-2,2-dimethylpropanoic acid], the EC50 in the data set with HBV (setting [2]) worked out at 19.4 nM. The molecule also showed a CC50 at 6 days in data set [1] of 11400 nM.

The molecule `CCOC(=O)C1=C(CN2CCN3C(=NC(C)=O)N(CC(C)(C)C(=O)O)CC3C2)NC(c2nccs2)=N[C@H]1c1cccc(F)c1C` (stereo partly drawn) [Compound 8, (S)-3-(3-(Acetylimino)-7-((5-(ethoxycarbonyl)-6-(3-fluoro-2-methylphenyl)-2-(thiazol-2-yl)-3,6-dihydropyrimidin-4-yl)methyl)hexahydroimidazo[1,5-a]pyrazin-2(3H)-yl)-2,2-dimethylpropanoic acid] came in with an EC50 in the data set with HBV (Hepatitis B virus, HepG2.2.15, 144 h) of 790 nM. Moreover, the CC50 at 6 days in data set [1] was > 100000 nM.

As for `CCOC(=O)C1=C(CN2CCN3C(=S)N(CC(C)(C)C(=O)O)C[C@@H]3C2)NC(c2nccs2)=N[C@H]1c1ccc(F)cc1Cl` (single isomer, unassigned) [Compound 21A, 3-(7-((6-(2-chloro-4-fluorophenyl)-5-(ethoxycarbonyl)-2-(thiazol-2-yl)-3,6-dihydropyrimidin-4-yl)methyl)-3-thioxohexahydroimidazo[1,5-a]pyrazin-2(3H)-yl)-2,2-dimethylpropanoic acid], in the data set with HBV (setting [2]), the EC50 worked out at 6 nM. In data set [1], this molecule displayed a CC50 at 6 days of 15200 nM.

On to `[2H][C@@]1(c2cccc(F)c2C)N=C(c2nccs2)NC(CN2CCN3C(=S)N(CC(C)(C)C(=O)O)C[C@@H]3C2)=C1C(=O)OCC` (single isomer, unassigned) [Compound 36B, 3-(7-((6-Deutero-5-(ethoxycarbonyl)-6-(3-fluoro-2-methylphenyl)-2-(thiazol-2-yl)-3,6-dihydropyrimidin-4-yl)methyl)-3-thioxohexahydroimidazo[1,5-a]pyrazin-2(3H)-yl)-2,2-dimethylpropanoic acid], for which the EC50 in the data set with HBV (setting [2]) was determined as 2.6 nM. Besides, the midpoint of cytotoxicity in data set [1], the CC50 at 6 days, lay at 23000 nM.

Consider `CCOC(=O)C1=C(CN2CCN3C(=CC#N)N(CC(C)(C)C(=O)O)CC3C2)NC(c2nccs2)=N[C@H]1c1cccc(F)c1C` (stereo partly drawn) [Compound 7, 3-(3-(Cyanomethylene)-7-(((S)-5-(ethoxycarbonyl)-6-(3-fluoro-2-methylphenyl)-2-(thiazol-2-yl)-3,6-dihydropyrimidin-4-yl)methyl)hexahydroimidazo[1,5-a]pyrazin-2(3H)-yl)-2,2-dimethylpropanoic acid], for which the EC50 in the data set with HBV (setting [2]) worked out at 720 nM. Further, half-maximal cytotoxicity in data set [1] (CC50 at 6 days) was put at 68700 nM.

Values taken from US20230165865A1, “HETEROARYLDIHYDROPYRIMIDINE DERIVATIVES AND METHODS OF TREATING HEPATITIS B INFECTIONS” (Janssen Pharmaceutica NV, priority 2018, published 2023).
